For the assay, the system named is RBL-2H3 cells. Kind of assay: Inhibition of degranulation (β-hexosaminidase co-secreted with histamine) in RBL-2H3 cells. It counts as cell-based. Particulars: RBL-2H3, IgE + DNP-HAS induced degranulation; 120 μL culture supernatant or ketotifen 20 μg/mL; negative control (Siraganian buffer) = 1.0. An excerpt:
It has been reported that, in an allergic reaction, histamine is expressed in tissues, causing an inflammatory reaction, and suppressing histamine secretion leads to alleviation of allergic symptoms by blocking the reaction by histamine. The present invention attempted to select probiotic strains that can show effects on the alleviation and treatment of allergic reactions through inhibition of histamine secretion. To this end, a total of eight Lactobacillus strains derived from human vagina were evaluated for the ability to suppress histamine secretion. […]
To identify the activity of β-hexosaminidase, 25 μL of the supernatant collected in Example 1-3 was transferred to each well of a 96-well plate, and then 25 μL of each substrate (p-nitrophenyl N-acetyl-D-[…]) was added thereto, and followed by a reaction at 37° C. in the 5% CO2 incubator for 90 minutes. Then, 200 μL of stop solution (Na2CO3/NaHCO3) was added to stop the reaction and then absorbance was measured at 405 nm. The absorbance when treated with each type of Lactobacillus crispatus was compared to the negative control group and converted to percentage to show the level of inhibition of the degranulation.

The values that follow come from US11141444B2, “Lactobacillus crispatus KBL693 strain and use thereof” (KO Biolabs, Inc., priority 2018, dated 2021).

For `CN1CCC(=C2c3ccccc3CC(=O)c3sccc32)CC1` [Ketotifen, ketotifen], the “β-hexosaminidase (fold change)” value is reported as 0.2569 fold change.
